{"source": "patent US12077503B2", "about": "“Substituted cyclic amides and their use as herbicides” (FMC CORPORATION, priority 2015, dated 2024)", "assay_type_in_all_cases": "in vivo", "key": {"[1]": {"tested_on": "Galium (catchweed bedstraw, Galium aparine)", "test": "Test A postemergence", "details": "Galium, post-emergence, 240 h, read-out: Plant response rating, Galium; for pest or weed control at 125 g/ha: 125 g ai/ha", "in_short": "(§1)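 In a loam soil and sand blend, planted seeds got a preemergence directed soil spray, and young plants at the one- to two-leaf stage, 2–10 cm high, got a postemergence application; ~10 d greenhouse hold; injury rated visually, 0 = none, 100 = complete control.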"}, "[2]": {"tested_on": "Kochia (Kochia scoparia)", "test": "Test A postemergence", "details": "Bassia scoparia, post-emergence, 240 h, read-out: Plant response rating, Kochia; for pest or weed control at 125 g/ha: 125 g ai/ha", "in_short": "as §1"}, "[3]": {"tested_on": "barnyardgrass (Echinochloa crus-galli)", "test": "Test A postemergence", "details": "Echinochloa crus-galli, post-emergence, 240 h, read-out: Plant response rating, Barnyardgrass; for pest or weed control at 125 g/ha: 125 g ai/ha", "in_short": "as §1"}, "[4]": {"tested_on": "blackgrass (Alopecurus myosuroides)", "test": "Test A postemergence", "details": "Alopecurus myosuroides, post-emergence, 240 h, read-out: Plant response rating, Blackgrass; for pest or weed control at 125 g/ha: 125 g ai/ha", "in_short": "as §1"}, "[5]": {"tested_on": "corn (Zea mays)", "test": "Test A postemergence", "details": "Zea mays, post-emergence, 240 h; for Corn plant response rating (crop injury, 0 = no effect, 100 = complete kill) at 125 g/ha: 125 g ai/ha", "in_short": "as §1"}, "[6]": {"tested_on": "giant foxtail (Setaria faberii)", "test": "Test A postemergence", "details": "Setaria faberi, post-emergence, 240 h, read-out: Plant response rating, Foxtail, Giant; for pest or weed control at 125 g/ha: 125 g ai/ha", "in_short": "as §1"}, "[7]": {"tested_on": "pigweed (Amaranthus retroflexus)", "test": "Test A postemergence", "details": "Amaranthus retroflexus, post-emergence, 240 h, read-out: Plant response rating, Pigweed; for pest or weed control at 125 g/ha: 125 g ai/ha", "in_short": "as §1"}, "[8]": {"tested_on": "ragweed (common ragweed, Ambrosia elatior)", "test": "Test A postemergence", "details": "Ambrosia artemisiifolia, post-emergence, 240 h, read-out: Plant response rating, Ragweed; for pest or weed control at 125 g/ha: 125 g ai/ha", "in_short": "as §1"}, "[9]": {"tested_on": "ryegrass, Italian (Italian ryegrass, Lolium multiflorum)", "test": "Test A postemergence", "details": "Lolium multiflorum, post-emergence, 240 h, read-out: Plant response rating, Ryegrass, Italian; for pest or weed control at 125 g/ha: 125 g ai/ha", "in_short": "as §1"}, "[10]": {"tested_on": "wheat (Triticum aestivum)", "test": "Test A postemergence", "details": "Triticum aestivum, post-emergence, 240 h, read-out: Plant response rating, Wheat; for plant injury at 125 g/ha: 125 g ai/ha", "in_short": "as §1"}, "[11]": {"tested_on": "barnyardgrass (Echinochloa crus-galli)", "test": "Test B flooded paddy test", "details": "Echinochloa crus-galli, Flood, 250 g ai/ha", "in_short": "(§2)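 Greenhouse paddy pots with 2-leaf stage plants received compound by direct addition to floodwater 3 cm deep, kept at that level. Scored visually at 13–15 d versus controls (0 no effect; 100 complete control).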"}, "[12]": {"tested_on": "ducksalad (Heteranthera limosa)", "test": "Test B flooded paddy test", "details": "Heteranthera limosa, Flood, 250 g ai/ha", "in_short": "as §2"}, "[13]": {"tested_on": "rice (Oryra sativa)", "test": "Test B flooded paddy test", "details": "Oryza sativa, Flood, 250 g ai/ha", "in_short": "as §2"}, "[14]": {"tested_on": "sedge, umbrella (small-flower umbrella sedge, Cyperus difformis)", "test": "Test B flooded paddy test", "details": "Cyperus difformis, Flood, 250 g ai/ha", "in_short": "as §2"}, "[15]": {"details": "Postemergence, visual injury after approx. 10 d, 0 to 100 scale, 0 no effect, 100 complete control"}, "[16]": {"details": "Postemergence, 500 g ai/ha, visual injury, 0 to 100 scale (0 no effect, 100 complete control), approx. 10 d"}, "[17]": {"details": "postemergence, visual injury after approximately 10 d, 0 to 100 scale (0 no effect, 100 complete control)"}, "[18]": {"details": "scale of 0 to 100 where 0 is no effect and 100 is complete control, read-out: Barnyardgrass plant response rating"}, "[19]": {"details": "scale of 0 to 100 where 0 is no effect and 100 is complete control, read-out: Ducksalad plant response rating"}, "[20]": {"details": "scale of 0 to 100 where 0 is no effect and 100 is complete control, read-out: Rice plant response rating"}, "[21]": {"details": "scale of 0 to 100 where 0 is no effect and 100 is complete control, read-out: Sedge, Umbrella plant response rating"}}, "note": "Read-outs that look alike come from different tables or passages of the source."}
{"molecule": "CC(C)c1cccc([C@H]2CN(C)C(=O)[C@@H]2C(=O)Nc2cccc(F)c2F)c1", "note": "[Compound 1388]", "values": [{"measurement": "pest or weed control at 125 g/ha", "setting": "[1]; [15]", "result": 50, "unit": "%"}, {"measurement": "pest or weed control at 500 g/ha", "setting": "[1]; [16]", "result": 50, "unit": "%"}, {"measurement": "pest or weed control at 125 g/ha", "setting": "[2]; [15]", "result": 30, "unit": "%"}, {"measurement": "pest or weed control at 500 g/ha", "setting": "[2]; [16]", "result": 50, "unit": "%"}, {"measurement": "pest or weed control at 125 g/ha", "setting": "[3]; [15]", "result": 100, "unit": "%"}, {"measurement": "pest or weed control at 500 g/ha", "setting": "[3]; [16]", "result": 100, "unit": "%"}, {"measurement": "pest or weed control at 125 g/ha", "setting": "[4]; [15]", "result": 70, "unit": "%"}, {"measurement": "pest or weed control at 500 g/ha", "setting": "[4]; [16]", "result": 90, "unit": "%"}, {"measurement": "Corn plant response rating (crop injury, 0 = no effect, 100 = complete kill) at 125 g/ha", "setting": "[5]; [15]", "result": 60, "unit": "%"}, {"measurement": "Corn plant response rating (crop injury, 0 = no effect, 100 = complete kill) at 500 g/ha", "setting": "[5]; [16]", "result": 80, "unit": "%"}, {"measurement": "pest or weed control at 125 g/ha", "setting": "[6]; [15]", "result": 90, "unit": "%"}, {"measurement": "pest or weed control at 500 g/ha", "setting": "[6]; [16]", "result": 90, "unit": "%"}, {"measurement": "pest or weed control at 125 g/ha", "setting": "[7]; [15]", "result": 40, "unit": "%"}, {"measurement": "pest or weed control at 500 g/ha", "setting": "[7]; [16]", "result": 50, "unit": "%"}, {"measurement": "pest or weed control at 125 g/ha", "setting": "[8]; [15]", "result": 0, "unit": "%"}, {"measurement": "pest or weed control at 500 g/ha", "setting": "[8]; [16]", "result": 50, "unit": "%"}, {"measurement": "pest or weed control at 125 g/ha", "setting": "[9]; [15]", "result": 60, "unit": "%"}, {"measurement": "pest or weed control at 500 g/ha", "setting": "[9]; [16]", "result": 90, "unit": "%"}, {"measurement": "plant injury at 125 g/ha", "setting": "[10]; [15]", "result": 50, "unit": "%"}, {"measurement": "plant injury at 500 g/ha", "setting": "[10]; [16]", "result": 60, "unit": "%"}, {"measurement": "pest or weed control at 250 g/ha", "setting": "[11]; 360 h, visually evaluated after 13 to 15 d, read-out: Plant response rating, Barnyardgrass (0 to 100 scale where 0 is no effect and 100 is complete control)", "result": 65, "unit": "%"}, {"measurement": "pest or weed control at 250 g/ha", "setting": "[12]; 360 h, visually evaluated after 13 to 15 d, read-out: Plant response rating, Ducksalad (0 to 100 scale where 0 is no effect and 100 is complete control)", "result": 80, "unit": "%"}, {"measurement": "pest or weed control at 250 g/ha", "setting": "[13]; 360 h, visually evaluated after 13 to 15 d, read-out: Plant response rating, Rice (0 to 100 scale where 0 is no effect and 100 is complete control)", "result": 0, "unit": "%"}, {"measurement": "pest or weed control at 250 g/ha", "setting": "[14]; 360 h, visually evaluated after 13 to 15 d, read-out: Plant response rating, Sedge, Umbrella (0 to 100 scale where 0 is no effect and 100 is complete control)", "result": 0, "unit": "%"}]}
{"molecule": "CN1C[C@H](c2ccc3c(c2)CCC3)[C@@H](C(=O)Nc2cccc(F)c2F)C1=O", "note": "[Compound 743]", "values": [{"measurement": "pest or weed control at 125 g/ha", "setting": "[1]; [17]", "result": 50, "unit": "%"}, {"measurement": "pest or weed control at 125 g/ha", "setting": "[2]; [17]", "result": 30, "unit": "%"}, {"measurement": "pest or weed control at 125 g/ha", "setting": "[3]; [17]", "result": 90, "unit": "%"}, {"measurement": "pest or weed control at 125 g/ha", "setting": "[4]; [17]", "result": 30, "unit": "%"}, {"measurement": "Corn plant response rating (crop injury, 0 = no effect, 100 = complete kill) at 125 g/ha", "setting": "[5]; [17]", "result": 60, "unit": "%"}, {"measurement": "pest or weed control at 125 g/ha", "setting": "[6]; [17]", "result": 90, "unit": "%"}, {"measurement": "pest or weed control at 125 g/ha", "setting": "[7]; [17]", "result": 0, "unit": "%"}, {"measurement": "pest or weed control at 125 g/ha", "setting": "[8]; [17]", "result": 0, "unit": "%"}, {"measurement": "pest or weed control at 125 g/ha", "setting": "[9]; [17]", "result": 40, "unit": "%"}, {"measurement": "plant injury at 125 g/ha", "setting": "[10]; [17]", "result": 50, "unit": "%"}, {"measurement": "pest or weed control at 250 g/ha", "setting": "[11]; [18]", "result": 65, "unit": "%"}, {"measurement": "pest or weed control at 250 g/ha", "setting": "[12]; [19]", "result": 95, "unit": "%"}, {"measurement": "pest or weed control at 250 g/ha", "setting": "[13]; [20]", "result": 20, "unit": "%"}, {"measurement": "pest or weed control at 250 g/ha", "setting": "[14]; [21]", "result": 0, "unit": "%"}]}
{"molecule": "CN1C[C@H](c2ccc3c(c2)CCC3)[C@@H](C(=O)Nc2ccccc2F)C1=O", "note": "[Compound 742]", "values": [{"measurement": "pest or weed control at 125 g/ha", "setting": "[1]; [17]", "result": 50, "unit": "%"}, {"measurement": "pest or weed control at 125 g/ha", "setting": "[2]; [17]", "result": 30, "unit": "%"}, {"measurement": "pest or weed control at 125 g/ha", "setting": "[3]; [17]", "result": 90, "unit": "%"}, {"measurement": "pest or weed control at 125 g/ha", "setting": "[4]; [17]", "result": 40, "unit": "%"}, {"measurement": "Corn plant response rating (crop injury, 0 = no effect, 100 = complete kill) at 125 g/ha", "setting": "[5]; [17]", "result": 70, "unit": "%"}, {"measurement": "pest or weed control at 125 g/ha", "setting": "[6]; [17]", "result": 90, "unit": "%"}, {"measurement": "pest or weed control at 125 g/ha", "setting": "[7]; [17]", "result": 0, "unit": "%"}, {"measurement": "pest or weed control at 125 g/ha", "setting": "[8]; [17]", "result": 20, "unit": "%"}, {"measurement": "pest or weed control at 125 g/ha", "setting": "[9]; [17]", "result": 60, "unit": "%"}, {"measurement": "plant injury at 125 g/ha", "setting": "[10]; [17]", "result": 60, "unit": "%"}, {"measurement": "pest or weed control at 250 g/ha", "setting": "[11]; [18]", "result": 60, "unit": "%"}, {"measurement": "pest or weed control at 250 g/ha", "setting": "[12]; [19]", "result": 100, "unit": "%"}, {"measurement": "pest or weed control at 250 g/ha", "setting": "[13]; [20]", "result": 0, "unit": "%"}, {"measurement": "pest or weed control at 250 g/ha", "setting": "[14]; [21]", "result": 0, "unit": "%"}]}
